Laboratory results from patent US4000985A, “Azo dyes having a high solubility in petroleum fuels” (Morton-Norwich Products, Inc., priority 1975, dated 1977).

Tests used:
Format in all cases: physicochemical
[1] = Storage solubility in No. 1 and No. 2 Heating Oil at ambient temperature and -10° C.
Procedure: The resultant mixtures were stored at ambient temperatures (20° to 25° C.) and at -10° C. Where any separation of dye occurred, the dye content of the remaining solution was determined colorimetrically.

[2] = Dissolution of 58% dye in 42% fuel by warming, cooling to 25° C. (six heating/diesel oils); settings: 58% by weight dye, warmed, cooled to 25° C.
Procedure: No. 2 Regular Grade Diesel Oil
Each dye-fuel oil mixture was warmed with stirring and then cooled to 25° C.

[3] = Physical state of the isolated dye; settings: for Physical State of Dye: after isolation according to Procedure B
Description: alternatively, the crude liquid dye may be taken up with a volatile solvent and the solvent removed during the drying process to yield a non-volatile liquid colorant.

[4] = Storage solubility in xylene at 20°-25° C. and -10° C.
Procedure: The solutions obtained were stored at 20°-25°C. and at -10° C. Where any separation of dye occurred, the dye content of the remaining solution was determined colorimetrically.

[5] = Rate and extent of dissolution in No. 1 and No. 2 Heating Oils at 25° C. (colorimetric); settings: for solubility in fuel oils (in words): No. 1 and No. 2 fuel oils; for dissolution in the heating oils: two minutes contact
Procedure: The solubility properties of each of the dyes of Examples 16-41 were evaluated in the fuels No. 1 and No. 2 Heating Oils, respectively. The procedure was as follows:
Where the dyes are solid dyes, excess of pulverized solid dye, far beyond that which would dissolve, i.e., 30 to 35% dye, was added to the respective oils at 25° C. and agitated at constant speed. Samples were removed at 1, 10 and 20 minute intervals, filtered, and the amount of dissolved dye determined colorimetrically.
The tarry non-solid dyes were charged in proportions of 50-60% dye to 50-40% oil rather than 30-35% used for the solid dyes. In fact, it was very difficult to stir the tarry dye-fuel oil mixture at a dye concentration of 50%. Samples for these dyes were taken after 2 minutes. The longer initial time for the tarry dyes was to permit reasonable contact between solvent and the viscous, condensed dye.

[6] = Dissolution of 58% dye in 42% fuel by warming, cooling to 25° C. (six heating/diesel oils)
[7] = Equilibrium solubility of Solvent Red No. 19 in petroleum fuels (filtrate, colorimetric)
Procedure: Solvent Red No. 19 was subjected to the same solubility test as set forth in Example 14.
In each instance, the precipitated mass was filtered and the dye content of the filtrate was determined colorimetrically.

[8] = General statements on solubility and dissolution rate in petroleum fuels
[9] = No. 1 Heating Oil, 20° C.-25° C. (Table 8)
[10] = No. 2 Heating Oil, 20° C.-25° C. (Table 9)
[11] = No. 1 Fuel Oil, 20 Minutes, 25° C., aminoazotoluene dyes (Table 6)
[12] = No. 2 Fuel Oil, 20 Minutes, 25° C., aminoazotoluene dyes (Table 7)
[13] = No. 1 Heating Oil, 20° C.-25° C. (Table 10)
[14] = No. 1 Heating Oil, -10° C. (Table 10)
[15] = No. 2 Heating Oil, 20° C.-25° C. (Table 11)
[16] = No. 2 Heating Oil, -10° C. (Table 11)
[17] = No. 1 Fuel Oil, 20 Minutes, 25° C., aminoazobenzene dyes (Table 4)
[18] = No. 2 Fuel Oil, 20 Minutes, 25° C., aminoazobenzene dyes (Table 5)

Solubility (% by Wt.) [1, 9]	Solubility (% by Wt.) [1, 10]	Physical State of Dye at 20° C. [3]	Solubility (% by Wt.) ([4]; 20° C.-25° C. (Table 12))	Solubility (% by Wt.) ([4]; -10° C. (Table 12))	Solubility (% by Wt.) [1, 13]	Solubility (% by Wt.) [1, 14]	Solubility (% by Wt.) [1, 15]	Solubility (% by Wt.) [1, 16]	equilibrium solubilities [6]	SMILES	behavior of dye-fuel oil mixture on cooling/storage [2]	other results
–	–	Liquid	Complete	Complete	Complete	Complete	Complete	Complete	–	CCCCC(CC)COCCCNc1ccc2ccccc2c1N=Nc1ccc(N=Nc2ccccc2)cc1 (stereo not drawn) [Example 8]	completely soluble and remained soluble at temperatures ranging from -10 °C to 25 °C	Physical State of Dye ([3]; listed as 27): liquid; Percent Dissolved [5, 17]: 52.3%; Percent Dissolved ([5]; No. 1 Fuel Oil, 2 min., aminoazobenzene dyes (Table 4)): 52.3%; solubility in fuel oils (in words) [5]: exceptionally high solubility; Percent Dissolved [5, 18]: 52.3%; Percent Dissolved ([5]; No. 2 Fuel Oil, 2 min., aminoazobenzene dyes (Table 5)): 52.3%; dissolution in the heating oils [5]: dissolved completely after two minutes contact
4.4 % by Wt.	5.1 % by Wt.	Solid	25.5 % by Wt.	10.35 % by Wt.	–	–	–	–	–	CCCCC(CC)CNc1ccc2ccccc2c1N=Nc1ccc(N=Nc2ccccc2)cc1 (stereo not drawn) [Example 2]	precipitated as a solid mass almost immediately upon cooling to 25 °C	crystallization from oily solvents ([8]; aromatic solvents, diesel and heating oils): crystallizes from oily solvents, including aromatic solvents, and diesel and heating oils; Physical State of Dye [3]: Solid; Percent Dissolved ([5]; No. 1 Fuel Oil, 1 Minute, 25° C., aminoazobenzene dyes (Table 4)): 3.43%; Percent Dissolved ([5]; No. 1 Fuel Oil, 10 Minutes, 25° C., aminoazobenzene dyes (Table 4)): 3.87%; Percent Dissolved [5, 17]: 4.47%; Percent Dissolved ([5]; No. 2 Fuel Oil, 1 Minute, 25° C., aminoazobenzene dyes (Table 5)): 4.63%; Percent Dissolved ([5]; No. 2 Fuel Oil, 10 Minutes, 25° C., aminoazobenzene dyes (Table 5)): 4.90%; Percent Dissolved [5, 18]: 5.13%

The next lines start with the molecule.

SMILES	Solubility (% by Wt.) [1, 9]	Solubility (% by Wt.) [1, 10]	Physical State of Dye at 20° C. [3]	Solubility (% by Wt.) ([4]; 20° C.-25° C. (Table 12))	Solubility (% by Wt.) ([4]; -10° C. (Table 12))	Solubility (% by Wt.) [1, 13]	Solubility (% by Wt.) [1, 14]	Solubility (% by Wt.) [1, 15]	Solubility (% by Wt.) [1, 16]	equilibrium solubilities [6]	behavior of dye-fuel oil mixture on cooling/storage [2]	other results
CCCCC(CC)CNc1ccc2ccccc2c1N=Nc1ccc(N=Nc2ccccc2C)cc1C (stereo not drawn) [Example 1]	Complete	Complete	Liquid	Complete	Complete	–	–	–	–	–	completely soluble and remained soluble at temperatures ranging from -10 °C to 25 °C	Solubility (% by Wt.) ([1]; No. 1 Heating Oil, -10° C. (Table 8)): Complete; Solubility (% by Wt.) ([1]; No. 2 Heating Oil, -10° C. (Table 9)): Complete; Physical State of Dye ([3]; listed as 38): liquid dye; Percent Dissolved [5, 11]: 58.0%; Percent Dissolved ([5]; No. 1 Fuel Oil, 2 min, aminoazotoluene dyes (Table 6)): 58.0%; solubility in fuel oils (in words) [5]: exceptionally high solubility; Percent Dissolved [5, 12]: 55.3%; Percent Dissolved ([5]; No. 2 Fuel Oil, 2 min, aminoazotoluene dyes (Table 7)): 55.3%; dissolution in the heating oils [5]: dissolved completely after two minutes contact
CCCCC(CC)COCCCNc1ccc2ccccc2c1N=Nc1ccc(N=Nc2ccccc2)cc1C (stereo not drawn) [Example 9]	–	–	Tar	Complete	38.1 % by Wt.	26.6 % by Wt.	9.5 % by Wt.	28.8 % by Wt.	9.5 % by Wt.	exceeded 25 percent by weight	displayed some separation of dye upon lengthy storage	–
CCNc1ccc2ccccc2c1N=Nc1ccc(N=Nc2ccccc2)cc1 [Solvent Red No. 19]	–	–	–	–	–	–	–	–	–	–	precipitation occurred immediately	% by Weight Soluble (At Equilibrium) ([7]; No. 1 Heating Oil): 2.23 % by Weight; % by Weight Soluble (At Equilibrium) ([7]; No. 1 Premium Diesel): 1.89 % by Weight; % by Weight Soluble (At Equilibrium) ([7]; No. 2 Heating Oil): 3.41 % by Weight; % by Weight Soluble (At Equilibrium) ([7]; No. 2 Premium Diesel): 2.30 % by Weight; % by Weight Soluble (At Equilibrium) ([7]; No. 2 Regular Diesel): 2.63 % by Weight; % by Weight Soluble (At Equilibrium) ([7]; No. 4 Heating Oil): 5.76 % by Weight
CCCCC(CC)COCCCNc1ccc2ccccc2c1N=Nc1cc(C)c(N=Nc2ccccc2C)cc1C (stereo not drawn) [Example 10]	–	–	Tar	36.3 % by Wt.	20.8 % by Wt.	29.5 % by Wt.	19.8 % by Wt.	29.7 % by Wt.	12.1 % by Wt.	exceeded 25 percent by weight	displayed some separation of dye upon lengthy storage	–
CCCCC(CC)CNc1ccc2ccccc2c1N=Nc1cc(C)c(N=Nc2ccccc2C)cc1C (stereo not drawn) [Example 4]	44.8 % by Wt.	44.1 % by Wt.	Liquid	50.0 % by Wt.	25.0 % by Wt.	–	–	–	–	exceeded 25 percent by weight	displayed some separation of dye upon lengthy storage	–
CCCCC(CC)COCCCNc1ccc2ccccc2c1N=Nc1ccc(N=Nc2ccccc2C)cc1C (stereo not drawn) [Example 7]	–	–	Solid	Complete	20.8 % by Wt.	8.3 % by Wt.	–	7.7 % by Wt.	–	–	precipitated as a solid mass almost immediately upon cooling to 25 °C	solubility in petroleum fuels (in words) [8]: relatively low solubility in petroleum fuels; Physical State of Dye [3]: Solid; Percent Dissolved ([5]; No. 1 Fuel Oil, 1 Minute, 25° C., aminoazotoluene dyes (Table 6)): 6.44%; Percent Dissolved ([5]; No. 1 Fuel Oil, 10 Minutes, 25° C., aminoazotoluene dyes (Table 6)): 7.41%; Percent Dissolved [5, 11]: 8.35%; Percent Dissolved ([5]; No. 2 Fuel Oil, 1 Minute, 25° C., aminoazotoluene dyes (Table 7)): 6.12%; Percent Dissolved ([5]; No. 2 Fuel Oil, 10 Minutes, 25° C., aminoazotoluene dyes (Table 7)): 6.85%; Percent Dissolved [5, 12]: 7.71%
